Experimental data published in patent publication US20220096454A1, “CARBOXYLIC ACID DERIVATIVES” (Merck Patent GmbH, priority 2018, published 2022).

Legend:
TNKS1 = target: T1, TNKS1 (Homo sapiens, UniProt O95271); experiment: TNKS1 activity ELISA (autoparsylation assay); format: biochemical; conditions: GST-tagged Tnks-1 (1023-1327 aa), 10 μM bio-NAD, 1 hour at 30° C.
T1 construct: GST-tagged Tnks-1 (1023-1327 aa, prepared in-house); made in house
Protocol: (§1) Description of the TNKS1 and TNKS2 ELISA Assay
(§2) Biochemical activity testing of TNKS 1 and 2: activity ELISA (Autoparsylation assay)
(§3) For analysis of autoparsylation activity of TNKS 1 and 2 an activity ELISA is performed: In the first step GST tagged TNKS is captured on a Glutathione coated plate. Then the activity assay with biotinylated NAD is performed in the absence/presence of the compounds. During the enzymatic reaction GST tagged TNKS transfers biotinylated ADP-ribose to itself from biotinylated NAD as co-substrate. For the detection streptavidin-HRP conjugate is added that binds to the biotinylated TNKS and is thereby captured to the plates. The amount of biotinylated resp. autoparsylated TNKS is detected with a luminescence substrate for HRP. The level of the luminescence signal correlates directly with the amount of autoparsylated TNKS and therefore with activity of TNKS.
(§4) The activity ELISA is performed in 384 well Glutathione coated microtiter plates (Express capture Glutathione coated plate, Biocat, Heidelberg, Germany). The plates are pre-equilibrated with PBS. […] The plates are washed 3 times with PBS-Tween-20. The wells are blocked by incubation at room temperature for 20 minutes with 50 μl blocking buffer (PBS, 0.05% Tween-20, 0.5% BSA). Afterwards the plates are washed 3 times with PBS-Tween-20. […] The reaction is stopped by 3 times washing with PBS-Tween-20. For the detection 50 μl of 20 ng/μl Streptavidin, HRP conjugate (MoBiTec, Göttingen, Germany) in PBS/0.05% Tween-20/0.01% BSA are added and the plates are incubated for 30 minutes at room temperature. After three times washing with PBS-Tween-20 50 μl of SuperSignal ELISA Femto Maximum sensitivity substrate solution (ThermoFisherScientific (Pierce), Bonn, Germany) are added. Following a 1 minute incubation at room temperature luminescence signals are measured with an Envision multimode reader (Perkin Elmer LAS Germany GmbH) at 700 nm. The full value used is the inhibitor-free reaction. […] The inhibitory values (IC50) are determined using either the program Symyx Assay Explorer® or Condosseo® from GeneData.

TNKS2 = target: T2, TNKS2 (Homo sapiens, UniProt Q9H2K2); experiment: TNKS2 activity ELISA (autoparsylation assay); format: biochemical; conditions: GST-tagged Tnks-2 (873-1166 aa), 10 μM bio-NAD, 1 hour at 30° C.
T2 construct: GST-tagged Tnks-2 (873-1166 aa, prepared in-house); made in house
Protocol: as §1, §2, §3, §4

Tankyrases = conditions: read-out: EC50 [M] TNKS cellular assay; increase of Axin2 level in colon carcinoma cell line DLD1, 24 hours
Protocol: Measurement of Cellular Inhibition of Tankyrase
Cells of the colon carcinoma cell line DLD1 are plated in 96 well plates with 1.5×10^4 cells per well. Next day, cells are treated with a serial dilution of test compound in seven steps as triplicates with a final DMSO concentration of 0.3%. […] The amount of isolated Axin2 protein is determined in a Luminex^200 machine (Luminex Corporation) according to the manufacturer's instruction by counting 100 events per well. […] As controls cells are treated with solvent alone (neutral control) and with a Tankyrase reference inhibitor IWR-2 (3E−06 M) which refers as control for maximum increase of Axin2. For analysis, the obtained data are normalized against the untreated solvent control and fitted for determination of the EC50 values using the Assay Explorer software (Accelrys).

T1 sequence (O95271 1023-1327): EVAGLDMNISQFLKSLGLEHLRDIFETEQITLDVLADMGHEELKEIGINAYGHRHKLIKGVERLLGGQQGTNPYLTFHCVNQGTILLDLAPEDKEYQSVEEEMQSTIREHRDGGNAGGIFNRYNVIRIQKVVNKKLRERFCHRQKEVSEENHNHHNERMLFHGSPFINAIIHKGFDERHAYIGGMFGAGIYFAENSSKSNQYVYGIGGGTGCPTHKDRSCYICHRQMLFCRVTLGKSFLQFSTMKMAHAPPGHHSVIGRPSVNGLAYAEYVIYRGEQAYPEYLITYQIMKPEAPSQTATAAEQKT
T2 sequence (Q9H2K2 873-1166): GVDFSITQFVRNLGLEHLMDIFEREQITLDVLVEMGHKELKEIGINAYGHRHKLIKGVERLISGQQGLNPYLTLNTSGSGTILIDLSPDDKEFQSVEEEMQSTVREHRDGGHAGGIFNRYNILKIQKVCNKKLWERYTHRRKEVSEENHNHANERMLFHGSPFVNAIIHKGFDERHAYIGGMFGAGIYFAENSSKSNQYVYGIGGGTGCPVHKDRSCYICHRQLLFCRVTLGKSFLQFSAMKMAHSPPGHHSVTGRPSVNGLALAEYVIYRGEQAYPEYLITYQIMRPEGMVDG

Compound	IC50 (TNKS1)	IC50 (TNKS2)	EC50 (Tankyrases)
CN(C(=O)N1CCC(C(=O)c2ccc3c(cnn3C)c2)CC1)c1ccc(C(=O)O)cc1 [Compound C22, 4-{Methyl-[4-(1-methyl-1H-indazole-5-carbonyl)-piperidine-1-carbonyl]-amino}-benzoic Acid]	7.6 nM	3.9 nM	3.46e-07 M
COc1ccc(N(C)C(=O)N2CCC(C(=O)c3ccc4c(c3)c(C(=O)O)nn4C)CC2)cc1 [Compound C15, 5-{1-[(4-Methoxy-phenyl)-methyl-carbamoyl]-piperidine-4-carbonyl}-1-methyl-1H-indazole-3-carboxylic Acid]	43 nM	19 nM	7.1e-06 M
CCN(C(=O)N1CCC(C(=O)c2ccc3c(C(=O)O)nn(C)c3c2)CC1)c1ccc(F)cc1 [Compound C10, 6-{1-[Ethyl-(4-fluoro-phenyl)-carbamoyl]-piperidine-4-carbonyl}-1-methyl-1H-indazole-3-carboxylic Acid]	0.744 nM	0.432 nM	4.6e-07 M
CN(C(=O)N1CCC(C(=O)c2ccc3cnn(C)c3c2)CC1)c1ccc(C(=O)O)cc1 [Compound C17, 4-{Methyl-[4-(1-methyl-1H-indazole-6-carbonyl)-piperidine-1-carbonyl]-amino}-benzoic Acid]	1.32 nM	0.798 nM	2.07e-07 M
